{"source": "patent US7704986B2", "about": "“Vitamin D3 analogues for the prevention and treatment of bone disorders” (K.U. Leuven Research and Development, priority 2004, dated 2010)", "test_system": "SHAM or OVX operated C3H mice", "experiment": "Ovariectomized mice model for primary prevention of osteoporosis", "assay_type": "in vivo", "details": "0.5 μg/kg i.p.", "method": "Twelve-week-old C3H mice were randomly divided into four groups (9-13 mice/group). Two groups of mice were SHAM-operated (SHAM) and two groups were ovariectomized (OVX). Three days after the surgical procedure the SHAM and OVX mice were injected with MV2 intraperitoneally at 0.5 μg/kg/2days (4 times per week) or vehicle (arachis oil). The mice were treated for 8 weeks. At the beginning (before the first injection) of the experiment, bone mineral density (BMD) and bone mineral content (BMC) were determined by dual-energy X-ray absorptiometry (hereinafter referred as DEXA) and serum calcium levels were determined by a microcolorimetric assay. The animals were weighted regularly during the experimental period.\nAt the end of the experiment serum calcium levels, BMD and BMC were again measured. Trabecular and cortical bone mineral content (BMC) and bone mineral density (BMD) and the geometry of the femur were assessed by a Stratex XCT densitometer (pQCT). Femur calcium content was measured in HCl-dissolved bone ash (obtained by heating for 24 hours in an oven at 100° C.), using a microcolorimetric assay. […] Statistical analysis was performed with the software program NCSS (NCSS, Kaysville, Utah, USA). ANOVA analyses followed bye Fisher's least significant (LSD)-multiple comparison tests were carried out to detect significant differences, p<0.05 was accepted as significant.", "key": {"[1]": {"details": "DEXA, OVX mice, 8 weeks, increase (↑)"}, "[2]": {"details": "DEXA, SHAM mice, 8 weeks, increase (↑)"}, "[3]": {"details": "calculated from pQCT femur, OVX mice, 8 weeks, increase (↑)"}, "[4]": {"details": "calculated from pQCT femur, SHAM mice, 8 weeks, increase (↑), * not significant"}, "[5]": {"details": "pQCT femur, OVX mice, 8 weeks, increase (↑)"}, "[6]": {"details": "pQCT femur, SHAM mice, 8 weeks, increase (↑)"}}, "note": "“And” between values parts separate entries of the source, which are not always exact repeats. Identical values can stand only once.", "data": [{"smiles": "C[C@H](CC#CC(O)(C(F)(F)F)C(F)(F)F)[C@@]1(C)CC[C@@H](/C=C/C=C2C[C@@H](O)C[C@H](O)C2)C1(C)C", "note": "[MV2, (1R,3R)-5-((E)-3-((1S,3R)-3-((1R)-6,6,6-trifluoro-5-hydroxy-1-methyl-5-trifluoromethyl-3-hexynyl)-2,2,3-trimethylcyclopentyl)-2-propenylidene)cyclohexane-1,3-diol]", "values": [{"measurement": "body weight during treatment", "setting": "8 weeks", "value": "no animals lost weight"}, {"measurement": "serum calcium levels (no hypercalcemic effects)", "setting": "end of 8 weeks", "value": "below 11.5 mg/dl"}, {"measurement": "BMC total body, OVX + analogue vs. OVX + vehicle (= 100%) in %", "setting": "[1]", "value": "19% and 19 ↑ %"}, {"measurement": "BMD spine, OVX + analogue vs. OVX + vehicle (= 100%) in %", "setting": "[1]", "value": "22% and 22 ↑ %"}, {"measurement": "BMD total body, OVX + analogue vs. OVX + vehicle (= 100%) in %", "setting": "[1]", "value": "9% and 9 ↑ %"}, {"measurement": "BMC total body, SHAM + analogue vs. SHAM + vehicle (= 100%) in %", "setting": "[2]", "value": "16% and 16 ↑ %"}, {"measurement": "BMD spine, SHAM + analogue vs. SHAM + vehicle (= 100%) in %", "setting": "[2]", "value": "11% and 11 ↑ %"}, {"measurement": "BMD total body, SHAM + analogue vs. SHAM + vehicle (= 100%) in %", "setting": "[2]", "value": "9% and 9 ↑ %"}, {"measurement": "increase in calcium content in femur, OVX treated animals compared to control animals", "setting": "OVX mice, 8 weeks", "value": 14, "unit": "%"}, {"measurement": "increase in calcium content in femur, SHAM treated animals compared to control animals", "setting": "SHAM mice, 8 weeks", "value": 12, "unit": "%"}, {"measurement": "Moment of inertia, OVX analogue versus OVX vehicle (=100%) in %", "setting": "[3]", "value": "12 ↑ %"}, {"measurement": "Moment of resistance, OVX analogue versus OVX vehicle (=100%) in %", "setting": "[3]", "value": "8 ↑ %"}, {"measurement": "Moment of inertia, SHAM analogue versus SHAM vehicle (=100%) in %", "setting": "[4]", "value": "6 ↑* %"}, {"measurement": "Moment of resistance, SHAM analogue versus SHAM vehicle (=100%) in %", "setting": "[4]", "value": "3 ↑* %"}, {"measurement": "Endosteal circumference, OVX analogue versus OVX vehicle (=100%) in %", "setting": "pQCT femur, OVX mice, 8 weeks, decrease (↓), * not significant", "value": "2 ↓* %"}, {"measurement": "Cortical BMC, OVX analogue versus OVX vehicle (=100%) in %", "setting": "[5]", "value": "11 ↑ %"}, {"measurement": "Cortical BMD, OVX analogue versus OVX vehicle (=100%) in %", "setting": "[5]", "value": "2 ↑ %"}, {"measurement": "Cortical area, OVX analogue versus OVX vehicle (=100%) in %", "setting": "[5]", "value": "9 ↑ %"}, {"measurement": "Cortical thickness, OVX analogue versus OVX vehicle (=100%) in %", "setting": "[5]", "value": "8 ↑ %"}, {"measurement": "Periosteal circumference, OVX analogue versus OVX vehicle (=100%) in %", "setting": "[5]", "value": "3% and 3 ↑ %"}, {"measurement": "Trabecular BMC, OVX analogue versus OVX vehicle (=100%) in %", "setting": "[5]", "value": "69 ↑ %"}, {"measurement": "Trabecular BMD, OVX analogue versus OVX vehicle (=100%) in %", "setting": "[5]", "value": "57 ↑ %"}, {"measurement": "Trabecular area, OVX analogue versus OVX vehicle (=100%) in %", "setting": "[5]", "value": "8 ↑ %"}, {"measurement": "Endosteal circumference, SHAM analogue versus SHAM vehicle (=100%) in %", "setting": "pQCT femur, SHAM mice, 8 weeks, decrease (↓), * not significant", "value": "4 ↓* %"}, {"measurement": "Cortical BMC, SHAM analogue versus SHAM vehicle (=100%) in %", "setting": "[6]", "value": "7 ↑ %"}, {"measurement": "Cortical BMD, SHAM analogue versus SHAM vehicle (=100%) in %", "setting": "[6]", "value": "1 ↑ %"}, {"measurement": "Cortical area, SHAM analogue versus SHAM vehicle (=100%) in %", "setting": "[6]", "value": "6 ↑ %"}, {"measurement": "Cortical thickness, SHAM analogue versus SHAM vehicle (=100%) in %", "setting": "[6]", "value": "6 ↑ %"}, {"measurement": "Trabecular BMC, SHAM analogue versus SHAM vehicle (=100%) in %", "setting": "[6]", "value": "83 ↑ %"}, {"measurement": "Trabecular BMD, SHAM analogue versus SHAM vehicle (=100%) in %", "setting": "[6]", "value": "74 ↑ %"}, {"measurement": "Trabecular area, SHAM analogue versus SHAM vehicle (=100%) in %", "setting": "[6]", "value": "7 ↑ %"}, {"measurement": "Periosteal circumference, SHAM analogue versus SHAM vehicle (=100%) in %", "setting": "pQCT femur, SHAM mice, 8 weeks, increase (↑), * not significant", "value": "1 ↑* %"}]}]}
